System: SF188 cells
Assay: Viability of glutamine-starved SF188 cells in hypoxia (trypan blue dye exclusion)
Format: cell-based, human
Conditions: 0.5% O2, glutamine-deficient medium supplemented with 7 mM dimethyl α-ketoglutarate, 48 h
Description: In FIG. 2(A), SF188 cells were cultured for 24 h in complete medium equilibrated with either 21% O2 (Normoxia) or 0.5% O2 (Hypoxia). Culture medium was then removed from cells and analyzed for glutamine levels which were compared to the glutamine levels in fresh medium. Data are the mean±SEM of 3 independent experiments. […] Cells were cultured in complete medium equilibrated with 0.5% O2 for 24 h, followed by an additional 48 h at 0.5% O2 in either complete medium (+Gln), glutamine-deficient medium (−Gln), or glutamine-deficient medium supplemented with 7 mM dimethyl α-ketoglutarate (−Gln+αKG). All medium was pre-conditioned in 0.5% O2. Cell viability was determined by trypan blue dye exclusion. Data are the mean and range from 2 independent experiments. FIG. 2(C) depicts a model of the pathways for cit+4 and cit+5 production from [U-^13C]glutamine (glutamine+5). […] Cells were cultured for 24 h as in (A), followed by 4 h of culture in glutamine-deficient medium supplemented with 4 mM [U-^13C]glutamine. ^13C enrichment in cellular citrate was quantitated with GC-MS. […]
SF188 and RCC4 cells were cultured in Dulbecco's Modified Eagle's Medium (DMEM; Invitrogen 11965), 10% fetal bovine serum (FBS; Gemini Biosystems), 100 units/ml Penicillin, 100 ug/ml Streptomycin, 25 mM glucose, and 6 mM L-glutamine. […] Viability was determined by trypan blue exclusion. […]

`COC(=O)CCC(=O)C(=O)OC` [dimethyl α-ketoglutarate] was tested, and the “cell viability upon glutamine withdrawal” value was “rescued the defect in cell viability”.

Source: US11262362B2, “2-hydroxyglutarate as a biomarker for chronic hypoxia” (MEMORIAL SLOAN KETTERING CANCER CENTER, priority 2011, dated 2022)
